Structures can show the parent of a compound that is named as a salt. Where two headings read alike, the source gives them in different places. Blank lines part the entries; values can stand above or below the compound they belong to.
Assays:
[1] = target: PI3Kδ (p1106/p85a) Recombinant Human Protein (Homo sapiens (Human), UniProt O00329); assay: PI3Kδ scintillation proximity assay; type: biochemical
[2] = target: PI3Kγ (p110γ) Recombinant Human Protein (Homo sapiens (Human), UniProt P48736); assay: PI3K-γ scintillation proximity assay; type: biochemical
[3] = tested on: Phosphorylated Ribosomal Protein S6 (RPS6) in THP-1 cells; assay: THP-1 RPS6 ELISA assay; type: cell-based, Human
Source text: Example A. THP-1 RPS6 ELISA Assay
To measure the Phosphorylated Ribosomal Protein S6 (RPS6) in cell lysates, THP-1 cells (Human Acute Monocytic Leukemia) are purchased from ATCC (Manassas, VA) and maintained in RPMI with 10% FBS (Gibco/Life Technologies, Carlsbad, CA). For the assay, THP-1 cells are serum starved overnight in RPMI, then plated in RPMI (2×10^5 cells/well in […]) into 96-well flat-bottom tissue culture treated plates (Corning, Corning, NY), in the presence or absence of a concentration range of test compounds. Covered plates are incubated for 2 hours at 37° C., 5% CO2 then treated with or without 10 nM MCP-1(MYBioSource, San Diego, CA) for 15 minutes at 37° C., 5% CO2. Plates are centrifuged at 1600 RPM and supernatants are removed. Cells are lysed in Lysis Buffer (Cell Signaling, Danvers, MA) with Protease Inhibitor (Calbiochem/EMD, Germany), PMSF (Sigma, St Louis MO), HALTS (Thermo Fisher, Rockford, IL) for 30 min on wet ice. Cell lysates are frozen at −80° C. before testing. The lysates are tested in the Human/Mouse/Rat Phospho-RPS6 ELISA (R&D Systems, Inc. Minn, MN). The plate is measured using a microplate reader (SpectraMax M5—Molecular Devices, LLC Sunnyvale, CA) set to 450 nm with a wavelength correction of 540. IC50 determination is performed by fitting the curve of inhibitor percent inhibition versus the log of the inhibitor concentration using the GraphPad Prism 5.0 software.
The compounds of the Examples were tested in the assays described in Examples A, B and C and found to have the IC50s are shown in Tables A1, A2, A3 and A4.

[4] = Table A3, scintillation proximity assay, recombinant human PI3Kδ
[5] = Table A3, scintillation proximity assay, recombinant human p110γ
[6] = Homo sapiens, Table A3, THP-1 cells, 10 nM MCP-1, phospho-RPS6 ELISA, read-out: PI3Kγ_THP1_RPS6_ELISA IC50
[7] = Table A4, scintillation proximity assay, recombinant human PI3Kδ
[8] = Table A4, scintillation proximity assay, recombinant human p110γ
[9] = Homo sapiens, Table A4, THP-1 cells, 10 nM MCP-1, phospho-RPS6 ELISA, read-out: PI3Kγ_THP1_RPS6_ELISA IC50
[10] = Table A1, scintillation proximity assay, recombinant human PI3Kδ
[11] = Table A1, scintillation proximity assay, recombinant human p110γ
[12] = Table A1, THP-1 cells, 10 nM MCP-1, phospho-RPS6 ELISA, read-out: PI3Kγ_THP1_RPS6_ELISA IC50
[13] = Homo sapiens, Table A1, THP-1 cells, 10 nM MCP-1, phospho-RPS6 ELISA, read-out: PI3Kγ_THP1_RPS6_ELISA IC50

Sequence of PI3Kγ (p110γ) Recombinant Human Protein (P48736 whole entry): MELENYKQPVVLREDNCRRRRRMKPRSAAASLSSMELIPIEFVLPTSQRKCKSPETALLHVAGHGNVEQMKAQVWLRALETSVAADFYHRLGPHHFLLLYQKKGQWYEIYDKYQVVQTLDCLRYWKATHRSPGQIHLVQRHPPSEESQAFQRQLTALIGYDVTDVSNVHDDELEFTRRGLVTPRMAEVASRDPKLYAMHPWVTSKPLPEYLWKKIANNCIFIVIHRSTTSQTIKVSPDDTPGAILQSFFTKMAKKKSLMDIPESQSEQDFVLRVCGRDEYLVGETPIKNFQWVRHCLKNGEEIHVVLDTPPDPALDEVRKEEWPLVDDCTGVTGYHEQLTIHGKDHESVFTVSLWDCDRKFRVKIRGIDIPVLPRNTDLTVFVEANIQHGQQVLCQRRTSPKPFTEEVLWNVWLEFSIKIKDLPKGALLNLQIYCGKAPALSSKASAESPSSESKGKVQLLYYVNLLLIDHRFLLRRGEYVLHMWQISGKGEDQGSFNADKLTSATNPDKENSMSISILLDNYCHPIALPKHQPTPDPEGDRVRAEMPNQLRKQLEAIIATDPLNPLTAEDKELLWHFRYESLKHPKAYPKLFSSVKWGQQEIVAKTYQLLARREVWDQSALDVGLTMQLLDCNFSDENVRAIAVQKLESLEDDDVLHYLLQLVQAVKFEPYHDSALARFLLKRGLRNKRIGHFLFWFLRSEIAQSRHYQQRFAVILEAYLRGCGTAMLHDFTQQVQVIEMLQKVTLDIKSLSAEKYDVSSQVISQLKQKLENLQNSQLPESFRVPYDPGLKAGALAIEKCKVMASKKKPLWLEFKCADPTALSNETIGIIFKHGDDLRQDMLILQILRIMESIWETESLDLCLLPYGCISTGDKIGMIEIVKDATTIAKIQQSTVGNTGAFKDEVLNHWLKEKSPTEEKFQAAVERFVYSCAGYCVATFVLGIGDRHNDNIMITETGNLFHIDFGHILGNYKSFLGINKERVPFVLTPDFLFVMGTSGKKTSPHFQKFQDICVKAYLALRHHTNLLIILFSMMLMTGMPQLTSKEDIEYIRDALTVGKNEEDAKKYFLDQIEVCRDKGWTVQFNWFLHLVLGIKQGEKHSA
Sequence of PI3Kδ (p1106/p85a) Recombinant Human Protein (O00329 whole entry): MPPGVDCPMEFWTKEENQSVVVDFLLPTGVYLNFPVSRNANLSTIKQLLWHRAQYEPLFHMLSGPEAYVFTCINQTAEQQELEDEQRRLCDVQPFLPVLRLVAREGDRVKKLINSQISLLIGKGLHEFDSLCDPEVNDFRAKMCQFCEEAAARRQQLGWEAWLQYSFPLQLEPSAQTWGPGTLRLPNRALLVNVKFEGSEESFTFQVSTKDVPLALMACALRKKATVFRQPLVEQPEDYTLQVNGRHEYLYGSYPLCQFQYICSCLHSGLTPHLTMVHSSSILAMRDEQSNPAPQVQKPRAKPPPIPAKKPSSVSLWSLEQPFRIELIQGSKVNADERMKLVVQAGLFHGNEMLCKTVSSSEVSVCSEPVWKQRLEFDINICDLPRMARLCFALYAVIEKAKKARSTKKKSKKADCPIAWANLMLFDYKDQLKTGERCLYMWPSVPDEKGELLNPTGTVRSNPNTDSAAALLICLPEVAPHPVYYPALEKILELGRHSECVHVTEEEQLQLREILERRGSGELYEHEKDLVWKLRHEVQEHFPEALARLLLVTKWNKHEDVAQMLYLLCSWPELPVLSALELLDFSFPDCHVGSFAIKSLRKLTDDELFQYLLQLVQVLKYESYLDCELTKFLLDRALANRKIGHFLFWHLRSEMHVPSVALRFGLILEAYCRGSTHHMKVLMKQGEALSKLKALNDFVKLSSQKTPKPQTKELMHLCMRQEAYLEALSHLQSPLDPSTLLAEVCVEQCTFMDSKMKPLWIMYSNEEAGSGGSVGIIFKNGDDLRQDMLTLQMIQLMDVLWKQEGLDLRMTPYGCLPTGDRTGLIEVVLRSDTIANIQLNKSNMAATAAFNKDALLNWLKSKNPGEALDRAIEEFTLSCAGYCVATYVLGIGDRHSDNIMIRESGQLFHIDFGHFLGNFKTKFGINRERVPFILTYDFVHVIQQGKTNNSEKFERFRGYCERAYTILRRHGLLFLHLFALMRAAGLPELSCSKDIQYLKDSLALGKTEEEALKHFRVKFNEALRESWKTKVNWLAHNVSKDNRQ
Sequence of PI3Kδ (p1106/p85a) Recombinant Human Protein (P27986 whole entry partner): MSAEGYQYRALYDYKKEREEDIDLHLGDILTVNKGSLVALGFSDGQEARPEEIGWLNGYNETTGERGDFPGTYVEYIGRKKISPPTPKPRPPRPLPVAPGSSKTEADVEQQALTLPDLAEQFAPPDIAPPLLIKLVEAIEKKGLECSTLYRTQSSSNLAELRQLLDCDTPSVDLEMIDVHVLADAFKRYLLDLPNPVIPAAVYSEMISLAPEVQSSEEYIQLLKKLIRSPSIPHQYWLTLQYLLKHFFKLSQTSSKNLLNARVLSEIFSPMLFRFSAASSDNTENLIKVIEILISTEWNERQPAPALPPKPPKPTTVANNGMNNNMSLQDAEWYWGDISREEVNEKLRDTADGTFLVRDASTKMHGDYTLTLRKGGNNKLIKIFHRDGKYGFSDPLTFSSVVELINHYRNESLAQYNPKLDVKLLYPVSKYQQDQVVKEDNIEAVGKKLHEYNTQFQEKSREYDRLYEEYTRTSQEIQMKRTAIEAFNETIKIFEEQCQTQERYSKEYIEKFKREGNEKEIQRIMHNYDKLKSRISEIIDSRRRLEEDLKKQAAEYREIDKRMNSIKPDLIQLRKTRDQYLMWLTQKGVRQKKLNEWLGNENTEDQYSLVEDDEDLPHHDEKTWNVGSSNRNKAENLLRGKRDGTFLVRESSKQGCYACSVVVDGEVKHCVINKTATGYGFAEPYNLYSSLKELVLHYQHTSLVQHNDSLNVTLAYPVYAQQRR

Compound: CNC(=O)c1ccc(-c2nc(-c3cc(C(O)(C(N)=O)C(F)(F)F)ccc3C)cnc2N)cn1 (stereo not drawn) [Example 80, 5-(3-amino-6-(5-(3-amino-1,1,1-trifluoro-2-hydroxy-3-oxopropan-2-yl)-2-methylphenyl)pyrazin-2-yl)-N-methylpicolinamide bistrifluoroacetate]
IC50 [1, 4]: 100 to 500 nM
IC50 [2, 5]: < 100 nM
IC50 [3, 6]: 500 to 1000 nM

Compound: Cc1ccc(C(O)(C(N)=O)C(F)(F)F)cc1-c1cnc(N)c(-c2ccc(C(F)(F)F)nc2)n1 (stereo not drawn) [Example 83, 2-(3-(5-amino-6-(6-(trifluoromethyl)pyridin-3-yl)pyrazin-2-yl)-4-methylphenyl)-3,3,3-trifluoro-2-hydroxypropanamide bistrifluoroacetate]
IC50 [1, 4]: < 100 nM
IC50 [2, 5]: < 100 nM
IC50 [3, 6]: 100 to 500 nM

IC50 [1, 7]: 100 to 500 nM
IC50 [2, 8]: < 100 nM
IC50 [3, 9]: 500 to 1000 nM
Compound: CCOc1ccccc1N1CCN(c2nc(-c3cc(C(O)(C(N)=O)C(F)(F)F)ccc3C)cnc2N)CC1 (stereo not drawn) [Example 129, 2-(3-(5-amino-6-(4-(2-ethoxyphenyl)piperazin-1-yl)pyrazin-2-yl)-4-methylphenyl)-3,3,3-trifluoro-2-hydroxypropanamide trifluoroacetate]

Compound: CNC(=O)c1ccc(-c2nc(-c3cc(C(O)(C(N)=O)C(F)(F)F)ccc3C)cnc2N)cc1 (stereo not drawn) [Example 89, 4-(3-amino-6-(5-(3-amino-1,1,1-trifluoro-2-hydroxy-3-oxopropan-2-yl)-2-methylphenyl)pyrazin-2-yl)-N-methylbenzamide trifluoroacetate]
IC50 [1, 4]: < 100 nM
IC50 [2, 5]: < 100 nM
IC50 [3, 6]: 100 to 500 nM

IC50 [1, 10]: < 100 nM
IC50 [2, 11]: < 100 nM
IC50 [3, 12]: < 100 nM
Compound: Cc1ccc(C(O)(C(N)=O)C(F)(F)F)cc1-c1cnc(N)c(C(=O)N[C@H]2CC[C@H](O)CC2)n1 (stereo partly drawn) [Example 3, 3-amino-6-(5-(3-amino-1,1,1-trifluoro-2-hydroxy-3-oxopropan-2-yl)-2-methylphenyl)-N-((1r,4r)-4-hydroxycyclohexyl)pyrazine-2-carboxamide trifluoroacetate]

Compound: Cc1ccc(C(O)(C(N)=O)C(F)F)cc1-c1cnc(N)c(C(=O)NC(C)C)n1 (stereo not drawn) [Example 31]
IC50 [1, 10]: < 100 nM
IC50 [2, 11]: < 100 nM
IC50 [3, 12]: < 100 nM

IC50 [1, 10]: < 100 nM
IC50 [2, 11]: < 100 nM
IC50 [3, 13]: 100 to 500 nM
Compound: CC(=O)NCC(O)(c1ccc(C)c(-c2cnc(N)c(C(=O)NC(C)C)n2)c1)C(F)(F)F (stereo not drawn) [Example 39, 6-(5-(3-Acetamido-1,1,1-trifluoro-2-hydroxypropan-2-yl)-2-methylphenyl)-3-amino-N-isopropylpyrazine-2-carboxamide trifluoroacetate]

Compound: COCCn1cc(-c2nc(-c3cc(C(O)(C(N)=O)C(F)(F)F)ccc3C)cnc2N)cn1 (stereo not drawn) [Example 79, 2-(3-(5-amino-6-(1-(2-methoxyethyl)-1H-pyrazol-4-yl)pyrazin-2-yl)-4-methylphenyl)-3,3,3-trifluoro-2-hydroxypropanamide trifluoroacetate]
IC50 [1, 4]: < 100 nM
IC50 [2, 5]: < 100 nM
IC50 [3, 6]: < 100 nM

Compound: Cc1ccc(C(O)(C(N)=O)C(F)(F)F)cc1-c1cnc(N)c(-c2ccc(C(C)(C)O)cc2)n1 (stereo not drawn) [Example 91, 2-(3-(5-amino-6-(4-(2-hydroxypropan-2-yl)phenyl)pyrazin-2-yl)-4-methylphenyl)-3,3,3-trifluoro-2-hydroxypropanamide trifluoroacetate]
IC50 [1, 4]: < 100 nM
IC50 [2, 5]: < 100 nM
IC50 [3, 6]: < 100 nM

Compound: Cc1ccc(C(O)(CNC(=O)CF)C(F)(F)F)cc1-c1cnc(N)c(C(=O)NC(C)C)n1 (stereo not drawn) [Example 40, 3-Amino-N-isopropyl-6-(2-methyl-5-(1,1,1-trifluoro-3-(2-fluoroacetamido)-2-hydroxypropan-2-yl)phenyl)pyrazine-2-carboxamide trifluoroacetate]
IC50 [1, 10]: < 100 nM
IC50 [2, 11]: < 100 nM
IC50 [3, 13]: 100 to 500 nM

IC50 [1, 7]: 100 to 500 nM
IC50 [2, 8]: < 100 nM
IC50 [3, 9]: 500 to 1000 nM
Compound: Cc1ccc(C(O)(C(N)=O)C(F)(F)F)cc1-c1cnc(N)c(N2CCN(c3ccccc3C)CC2)n1 (stereo not drawn) [Example 118, 2-(3-(5-amino-6-(4-o-tolylpiperazin-1-yl)pyrazin-2-yl)-4-methylphenyl)-3,3,3-trifluoro-2-hydroxypropanamide trifluoroacetate]

Compound: Cc1ccc(C(O)(C(N)=O)C(F)(F)F)cc1-c1cnc(N)c(-c2cnn(CC(F)(F)F)c2)n1 (stereo not drawn) [Example 75, 2-(3-(5-amino-6-(1-(2,2,2-trifluoroethyl)-1H-pyrazol-4-yl)pyrazin-2-yl)-4-methylphenyl)-3,3,3-trifluoro-2-hydroxypropanamide trifluoroacetate]
IC50 [1, 4]: < 100 nM
IC50 [2, 5]: < 100 nM
IC50 [3, 6]: < 100 nM

Compound: Cc1ccc(C(O)(C(N)=O)C(F)(F)F)cc1-c1cnc(N)c(-c2cccc(C(C)C)c2)n1 (stereo not drawn) [Example 90, 2-(3-(5-amino-6-(3-isopropylplienyl)pyrazin-2-yl)-4-methylphenyl)-3?3,3-trifluoro-2-hydroxypropanamide trifluoroacetate]
IC50 [1, 4]: 100 to 500 nM
IC50 [2, 5]: < 100 nM
IC50 ([3]; Table A3, THP-1 cells, 10 nM MCP-1, phospho-RPS6 ELISA, read-out: PI3Kγ_THP1_RPS6_ELISA IC50): 100 to 500 nM

IC50 [1, 7]: 100 to 500 nM
IC50 [2, 8]: < 100 nM
IC50 [3, 9]: 100 to 500 nM
Compound: Cc1ccc(C(O)(C(N)=O)C(F)(F)F)cc1-c1cnc(N)c(N2CCN(C3CC3)C(=O)C2)n1 (stereo not drawn) [Example 112, 2-(3-(5-amino-6-(4-cyclopropyl-3-oxopiperazin-1-yl)pyrazin-2-yl)-4-methylphenyl)-3,3,3-trifluoro-2-hydroxypropanamide Trifluoroacetate]

Compound: Cc1ccc(C(O)(C(N)=O)C(F)(F)F)cc1-c1cnc(N)c(-c2cnn(C)n2)n1 (stereo not drawn) [Example 73, 2-(3-(5-amino-6-(2-methyl-2H-1,2,3-triazol-4-yl)pyrazin-2-yl)-4-methylphenyl)-3,3,3-trifluoro-2-hydroxypropanamide trifluoroacetate]
IC50 [1, 4]: < 100 nM
IC50 [2, 5]: < 100 nM
IC50 [3, 6]: < 100 nM

Compound: Cc1ccc(C(O)(C(N)=O)C(F)(F)F)cc1-c1cnc(N)c(N2CCN(CCC#N)CC2)n1 (stereo not drawn) [Example 125, 2-(3-(5-amino-6-(4-(2-cyanoethyl)piperazin-1-yl)pyrazin-2-yl)-4-methylphenyl)-3,3,3-trifluoro-2-hydroxypropanamide trifluoroacetate]
IC50 [1]: < 100 nM
IC50 [2]: < 100 nM
IC50 ([3]; Homo sapiens, THP-1, read-out: PI3Kγ_THP1_RPS6_ELISA IC50 (nM)): 100 to 500 nM

Compound: Cc1ccc(C(O)(C(N)=O)C(F)(F)F)cc1-c1cnc(N)c(N2CC(=O)N(c3ccc(O)cc3)[C@@H](CO)C2)n1 (stereo partly drawn) [Example 124, 2-(3-(5-amino-6-((R)-3-(hydroxymethyl)-4-(4-hydroxyphenyl)-5-oxopiperazin-1-yl)pyrazin-2-yl)-4-methylphenyl)-3,3,3-trifluoro-2-hydroxypropanamide trifluoroacetate]
IC50 [1, 7]: 100 to 500 nM
IC50 [2]: < 100 nM
IC50 [3, 9]: 500 to 1000 nM

Compound: Cc1ccc(C(O)(C(N)=O)C(F)(F)F)cc1-c1cnc(N)c(-c2cnc(C3CC3)s2)n1 (stereo not drawn) [Example 84, 2-(3-(5-amino-6-(2-cyclopropylthiazol-5-yl)pyrazin-2-yl)-4-methylphenyl)-3,3,3-trifluoro-2-hydroxypropanamide trifluoroacetate]
IC50 [1, 4]: < 100 nM
IC50 [2, 5]: < 100 nM
IC50 [3, 6]: 100 to 500 nM

IC50 [1, 10]: < 100 nM
IC50 [2, 11]: < 100 nM
IC50 [3, 12]: < 100 nM
Compound: CO[C@H]1CC[C@H](NC(=O)c2nc(-c3cc(C(O)(C(N)=O)C(F)(F)F)ccc3C)cnc2N)CC1 (stereo partly drawn) [Example 22, 3-amino-6-(5-(3-amino-1,1,1-trifluoro-2-hydroxy-3-oxopropan-2-yl)-2-methylphenyl)-N-((1r,4r)-4-methoxycyclohexyl)pyrazine-2-carboxamide trifluoroacetate]

From US20250388553A1 (Incyte Corporation, priority 2018, published 2025)
